From publication PMC11822212, “High-throughput screening identifies Aurora kinase B as a critical therapeutic target for Merkel cell carcinoma” (Nature Communications, 2025)

Columns and labels:
Assay type in all cases: cell-based, human
MCC13 cells (VN-MCC) = assay: qHTS cell viability (CellTiter-Glo, 72 h; primary and follow-up small molecule screen); conditions: MCC13, 72h
MCC26 cells (VN-MCC) = assay: as above; conditions: MCC26, 72h
UISO cells (VN-MCC) = assay: as above; conditions: UISO, 72h
WAGA cells (VP-MCC) = assay: as above; conditions: WAGA, 72h
MKL-1 cells (VP-MCC) = assay: as above; conditions: MKL1, 72h
MKL-2 cells (VP-MCC) = assay: as above; conditions: MKL2, 72h
[1] = tested on: VP-MCC cell lines (WAGA, MKL-1, MKL-2); assay: qHTS cell viability, VP-MCC cell lines as a group (mean AUC, VP.MCC.avg); conditions: re-tested in triplicate, follow-up screen
GDSC cancer cell lines = assay: Genomics of Drug Sensitivity in Cancer (GDSC) IC50 comparison across cancer cell lines; conditions: own IC50 estimates compared with public IC50 data
Protocol: Palo Alto, CA, USA) for these compounds from our small molecule screen. Following the graphing format in the GDSC database, compounds were ranked by IC50 and plotted in Rstudio using ggplot2, ggrepel, and scales packages. page 9: Supplementary Fig. S6. Au rora kinase inhibi tors mor e potentl y reduc e viability in VP-MCC than VN-MCC. […] Cell viability was measured by CellTiter- Glo at 72 h and by manual cell counts at 144 h. […] Consistent across n = 3 replicates . B) IC50 values (molar) for each aurora kinase inhibitor in each MCC cell line. […] IC50 values from GDSC (Gray-scale and green) were combined with IC50 values determined in our study (purple) and then ranked. n = number of experimental replicates for each cell line.

## CCn1cc(-c2ccnc3[nH]c(-c4cccc(CN(C)C)c4)cc23)c(-c2ccc(NC(=O)N(C)C)cc2)n1 [GSK-1070916A, reference compound]
MCC13 cells (VN-MCC); Log (M) -5.33646
  Percent viability: 0.9%
MCC13 cells (VN-MCC); Log (M) -5.81358
  Percent viability: 37.2%
MCC13 cells (VN-MCC); Log (M) -6.2907
  Percent viability: 74.5%
MCC13 cells (VN-MCC); Log (M) -6.76782
  Percent viability: 88.4%
MCC13 cells (VN-MCC); Log (M) -7.24494
  Percent viability: 96.7%
MCC13 cells (VN-MCC); Log (M) -7.72207
  Percent viability: 113.8%
MCC13 cells (VN-MCC); Log (M) -8.19919
  Percent viability: 87.1%
MCC13 cells (VN-MCC); Log (M) -8.67631
  Percent viability: 100.5%
MCC13 cells (VN-MCC); Log (M) -9.15343
  Percent viability: 112.0%
MCC13 cells (VN-MCC); Log (M) -9.63055
  Percent viability: 98.4%
MCC13 cells (VN-MCC); Log (M) -10.1077
  Percent viability: 100.0%
MCC26 cells (VN-MCC); Log (M) -5.33646
  Percent viability: 11.3%
MCC26 cells (VN-MCC); Log (M) -5.81358
  Percent viability: 9.7%
MCC26 cells (VN-MCC); Log (M) -6.2907
  Percent viability: 42.5%
MCC26 cells (VN-MCC); Log (M) -6.76782
  Percent viability: 75.5%
MCC26 cells (VN-MCC); Log (M) -7.24494
  Percent viability: 88.6%
MCC26 cells (VN-MCC); Log (M) -7.72207
  Percent viability: 92.0%
MCC26 cells (VN-MCC); Log (M) -8.19919
  Percent viability: 93.6%
MCC26 cells (VN-MCC); Log (M) -8.67631
  Percent viability: 92.5%
MCC26 cells (VN-MCC); Log (M) -9.15343
  Percent viability: 92.1%
MCC26 cells (VN-MCC); Log (M) -9.63055
  Percent viability: 87.6%
MCC26 cells (VN-MCC); Log (M) -10.1077
  Percent viability: 89.3%
UISO cells (VN-MCC); Log (M) -5.33646
  Percent viability: 0.3%
UISO cells (VN-MCC); Log (M) -5.81358
  Percent viability: 33.6%
UISO cells (VN-MCC); Log (M) -6.2907
  Percent viability: 52.9%
UISO cells (VN-MCC); Log (M) -6.76782
  Percent viability: 71.1%
UISO cells (VN-MCC); Log (M) -7.24494
  Percent viability: 86.6%
UISO cells (VN-MCC); Log (M) -7.72207
  Percent viability: 91.6%
UISO cells (VN-MCC); Log (M) -8.19919
  Percent viability: 90.7%
UISO cells (VN-MCC); Log (M) -8.67631
  Percent viability: 81.3%
UISO cells (VN-MCC); Log (M) -9.15343
  Percent viability: 106.7%
UISO cells (VN-MCC); Log (M) -9.63055
  Percent viability: 103.4%
UISO cells (VN-MCC); Log (M) -10.1077
  Percent viability: 104.7%
WAGA cells (VP-MCC); Log (M) -5.33646
  Percent viability: 2.1%
WAGA cells (VP-MCC); Log (M) -5.81358
  Percent viability: 12.6%
WAGA cells (VP-MCC); Log (M) -6.2907
  Percent viability: 31.4%
WAGA cells (VP-MCC); Log (M) -6.76782
  Percent viability: 40.3%
WAGA cells (VP-MCC); Log (M) -7.24494
  Percent viability: 26.0%
WAGA cells (VP-MCC); Log (M) -7.72207
  Percent viability: 27.1%
WAGA cells (VP-MCC); Log (M) -8.19919
  Percent viability: 28.3%
WAGA cells (VP-MCC); Log (M) -8.67631
  Percent viability: 104.6%
WAGA cells (VP-MCC); Log (M) -9.15343
  Percent viability: 100.0%
WAGA cells (VP-MCC); Log (M) -9.63055
  Percent viability: 103.0%
WAGA cells (VP-MCC); Log (M) -10.1077
  Percent viability: 100.0%
MKL-1 cells (VP-MCC); Log (M) -5.33646
  Percent viability: 0.6%
MKL-1 cells (VP-MCC); Log (M) -5.81358
  Percent viability: 0.7%
MKL-1 cells (VP-MCC); Log (M) -6.2907
  Percent viability: 25.3%
MKL-1 cells (VP-MCC); Log (M) -6.76782
  Percent viability: 39.6%
MKL-1 cells (VP-MCC); Log (M) -7.24494
  Percent viability: 24.8%
MKL-1 cells (VP-MCC); Log (M) -7.72207
  Percent viability: 28.8%
MKL-1 cells (VP-MCC); Log (M) -8.19919
  Percent viability: 32.4%
MKL-1 cells (VP-MCC); Log (M) -8.67631
  Percent viability: 60.3%
MKL-1 cells (VP-MCC); Log (M) -9.15343
  Percent viability: 97.5%
MKL-1 cells (VP-MCC); Log (M) -9.63055
  Percent viability: 94.1%
MKL-1 cells (VP-MCC); Log (M) -10.1077
  Percent viability: 98.1%
MKL-2 cells (VP-MCC); Log (M) -5.33646
  Percent viability: 1.0%
MKL-2 cells (VP-MCC); Log (M) -5.81358
  Percent viability: 2.3%
MKL-2 cells (VP-MCC); Log (M) -6.2907
  Percent viability: 21.5%
MKL-2 cells (VP-MCC); Log (M) -6.76782
  Percent viability: 34.0%
MKL-2 cells (VP-MCC); Log (M) -7.24494
  Percent viability: 33.8%
MKL-2 cells (VP-MCC); Log (M) -7.72207
  Percent viability: 50.1%
MKL-2 cells (VP-MCC); Log (M) -8.19919
  Percent viability: 59.6%
MKL-2 cells (VP-MCC); Log (M) -8.67631
  Percent viability: 59.6%
MKL-2 cells (VP-MCC); Log (M) -9.15343
  Percent viability: 98.0%
MKL-2 cells (VP-MCC); Log (M) -9.63055
  Percent viability: 107.1%
MKL-2 cells (VP-MCC); Log (M) -10.1077
  Percent viability: 88.8%
[1]
  VP-MCC viability (in words): consistently and potently reduced VP-MCC viability
GDSC cancer cell lines
  potency in VP-MCC cell lines versus other human cancer cell lines (GDSC): higher in VP-MCC cell lines than in hundreds of other human cancer cell lines
